Assay [1] addresses Human Cbl-b (residues 40-426) (Homo sapiens (Human), UniProt Q13191). The assay can be described thus: Cbl-b SPR assay. It is filed as binding. The settings on record: for Fold of selectivity: C-cbl SPR Kd vs Cbl-b SPR Kd; for Kd: SPR, 20° C. An outline of the steps:
(§1)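 Where a chaser compound was used, % compound bound was calculated as (1−(RUT/RUT0))*100 relative to a prior chaser injection and fitted to a single exponential for kd. The single cycle titration (max 500 nM) was then fitted with kd held fixed.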
(In general: SPR reads the build-up and loss of mass on a sensor chip optically.)

Assay [2] deals with c-Cbl (residues 47-435) (Homo sapiens (Human), UniProt P22681). The assay can be described thus: c-Cbl SPR assay. In kind it is binding. Conditions: 20° C. An outline of the steps: as §1
Chain of c-Cbl (residues 47-435) (P22681 47-435): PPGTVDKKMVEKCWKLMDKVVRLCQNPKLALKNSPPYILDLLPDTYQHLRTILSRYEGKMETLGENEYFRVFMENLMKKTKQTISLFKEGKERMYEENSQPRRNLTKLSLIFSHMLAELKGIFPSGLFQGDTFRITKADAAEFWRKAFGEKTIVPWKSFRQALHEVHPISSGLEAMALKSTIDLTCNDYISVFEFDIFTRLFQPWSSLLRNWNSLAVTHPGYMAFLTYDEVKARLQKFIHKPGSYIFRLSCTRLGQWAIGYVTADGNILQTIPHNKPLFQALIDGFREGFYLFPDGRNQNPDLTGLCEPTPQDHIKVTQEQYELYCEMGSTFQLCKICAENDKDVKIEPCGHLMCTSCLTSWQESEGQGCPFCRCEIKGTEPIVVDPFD
Assay [3] deals with c-Cbl (Homo sapiens (Human), UniProt P22681). Kind of assay: C-Cbl LCK Ub TR-FRET assay (C-cbl Lck HTRF). It is filed as biochemical. An outline of the steps:
(§2)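 After the ubiquitination reaction, detection mixture was added and plates incubated 20 min at room temperature before reading. IC50 values were calculated with wells lacking LCK as the low control and DMSO as the high control.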
(In TR-FRET formats the signal depends on donor and acceptor labels being close together.)

For assay [4], the target named is Cbl-b (Homo sapiens (Human), UniProt Q13191). Kind of assay: Cbl-b LCK Ub TR-FRET assay (Cbl-b Lck HTRF). In kind it is biochemical. The settings on record: for IC50: Cbl-b LCK Ub TR-FRET; for fold-selectivity (Cbl-b over C-cbl): ratio C-cbl Lck HTRF IC50 / Cbl-b Lck HTRF IC50. The method, boiled down: as §2
Chain of Cbl-b (Q13191 40-426): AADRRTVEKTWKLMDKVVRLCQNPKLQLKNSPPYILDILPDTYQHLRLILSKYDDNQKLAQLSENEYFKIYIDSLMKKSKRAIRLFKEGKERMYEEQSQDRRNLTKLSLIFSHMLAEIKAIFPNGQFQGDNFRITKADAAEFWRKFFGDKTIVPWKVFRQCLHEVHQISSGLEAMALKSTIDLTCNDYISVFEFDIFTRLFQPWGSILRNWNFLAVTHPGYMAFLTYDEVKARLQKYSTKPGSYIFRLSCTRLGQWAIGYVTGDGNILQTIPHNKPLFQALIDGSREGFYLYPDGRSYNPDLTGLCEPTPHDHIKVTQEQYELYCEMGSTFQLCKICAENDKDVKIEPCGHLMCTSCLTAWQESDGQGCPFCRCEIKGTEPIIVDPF

Chain of Human Cbl-b (residues 40-426) (Q13191 40-426): as above
Chain of c-Cbl (P22681 47-435): as the sequence (P22681 47-435) above

Broadly, the Kd is the constant that tells how readily two partners part at equilibrium. The term IC50 denotes the concentration that gives 50% inhibition. The compound `CO[C@H]1C[C@](c2cc(NC3CCCC3)cc(N3Cc4c(cc(CNC5(C)CCC5)cc4C(F)(F)F)C3=O)c2)(c2nncn2C)C1` [Compound 209, 2-(3-(cyclopentylamino)-5-((1r,3r)-3-methoxy-1-(4-methyl-4H-1,2,4-triazol-3-yl)cyclobutyl)phenyl)-6-(((1-methylcyclobutyl)amino)methyl)-4-(trifluoromethyl)isoindolin-1-one] yielded a Fold of selectivity in assay [1] of 12×. Also, the Kd in assay [1] was determined as 17 nM; in assay [2], 200 nM. Besides, the IC50 in assay [3] was 320 nM; in assay [4], 44 nM. Moreover, the “fold-selectivity (Cbl-b over C-cbl)” value in assay [4] was determined as 7.2x.

As for `CCNc1cc(N2Cc3c(cc(CNC4(C)CCC4)cc3C(F)(F)F)C2=O)cc([C@]2(c3nncn3C)C[C@H](OC)C2)c1` [Compound 210, 2-(3-(ethylamino)-5-((1r,3r)-3-methoxy-1-(4-methyl-4H-1,2,4-triazol-3-yl)cyclobutyl)phenyl)-6-(((1-methylcyclobutyl)amino)methyl)-4-(trifluoromethyl)isoindolin-1-one], in assay [1], the Fold of selectivity turned out to be 4.7× and binding was characterised by a dissociation constant (Kd) of 1.5 nM. Further, the affinity in assay [2], expressed as Kd, was 6.7 nM. The compound further had an IC50 in assay [3] of 12 nM. Moreover, in assay [4], half-maximal inhibition (IC50) was put at 9 nM and the “fold-selectivity (Cbl-b over C-cbl)” value came out at 1.3x.

As for `CO[C@H]1C[C@](c2cc(NC3CCC3)cc(N3Cc4c(cc(CNC5(C)CCC5)cc4C(F)(F)F)C3=O)c2)(c2nncn2C)C1` [Compound 211, 2-(3-(cyclobutylamino)-5-((1r,3r)-3-methoxy-1-(4-methyl-4H-1,2,4-triazol-3-yl)cyclobutyl)phenyl)-6-(((1-methylcyclobutyl)amino)methyl)-4-(trifluoromethyl)isoindolin-1-one], the Fold of selectivity in assay [1] is on record as 14×. The Kd in assay [1] worked out at 3.5 nM; in assay [2], 49 nM. Besides, the IC50 in assay [3] came to 60 nM; in assay [4] it was 15 nM. For the same compound, in assay [4], the “fold-selectivity (Cbl-b over C-cbl)” value was determined as 4.0x.

In assay [1], `CO[C@H]1C[C@](c2cc(OC3CCCC3)cc(N3Cc4c(cc(CNC5(C)CCC5)cc4C(F)(F)F)C3=O)c2)(c2nncn2C)C1` [Compound 212, 2-(3-(cyclopentyloxy)-5-((1r,3r)-3-methoxy-1-(4-methyl-4H-1,2,4-triazol-3-yl)cyclobutyl)phenyl)-6-(((1-methylcyclobutyl)amino)methyl)-4-(trifluoromethyl)isoindolin-1-one] came in with a Fold of selectivity of 4.8× and an equilibrium dissociation constant (Kd) of 110 nM. The compound also registered a Kd in assay [2] of 530 nM. This compound also gave an IC50 in assay [3] of 390 nM. Besides, in assay [4], the IC50 turned out to be 150 nM and the “fold-selectivity (Cbl-b over C-cbl)” value came out at 2.6x.

As to `C=C[C@@H](C)Oc1cc(N2Cc3c(cc(CNC4(C)CCC4)cc3C(F)(F)F)C2=O)cc([C@]2(c3nncn3C)C[C@@H](OC)C2)c1` [Compound 213, 2-(3-((R)-but-3-en-2-yloxy)-5-((1s,3S)-3-methoxy-1-(4-methyl-4H-1,2,4-triazol-3-yl)cyclobutyl)phenyl)-6-(((1-methylcyclobutyl)amino)methyl)-4-(trifluoromethyl)isoindolin-1-one], in assay [1], the Fold of selectivity was 1.8× and the Kd worked out at 160 nM. Also, the Kd in assay [2] was found to be 300 nM. The compound further registered an IC50 in assay [3] of 440 nM. In addition, in assay [4], the IC50 was 240 nM and the “fold-selectivity (Cbl-b over C-cbl)” value turned out to be 1.9x.

Consider `CO[C@H]1C[C@](c2cc(NC3CC3)cc(N3Cc4c(cc(CNC5(C)CCC5)cc4C(F)(F)F)C3=O)c2)(c2nncn2C)C1` [Compound 214, 2-(3-(cyclopropylamino)-5-((1r,3r)-3-methoxy-1-(4-methyl-4H-1,2,4-triazol-3-yl)cyclobutyl)phenyl)-6-(((1-methylcyclobutyl)amino)methyl)-4-(trifluoromethyl)isoindolin-1-one], for which, in assay [1], the Fold of selectivity was determined as 4.7× and the Kd was determined as 0.9 nM. Further, the affinity in assay [2], expressed as Kd, was 4.2 nM. In assay [3], this compound returned an IC50 of 9 nM. Moreover, in assay [4], the IC50 was determined as 9.3 nM and the “fold-selectivity (Cbl-b over C-cbl)” value turned out to be 0.97x.

Turning to `CO[C@H]1C[C@](c2cc(NC(C)C)cc(N3Cc4c(cc(CNC5(C)CCC5)cc4C(F)(F)F)C3=O)c2)(c2nncn2C)C1` [Compound 215, 2-(3-(isopropylamino)-5-((1r,3r)-3-methoxy-1-(4-methyl-4H-1,2,4-triazol-3-yl)cyclobutyl)phenyl)-6-(((1-methylcyclobutyl)amino)methyl)-4-(trifluoromethyl)isoindolin-1-one], in assay [1], the Fold of selectivity amounted to 4.1× and the Kd worked out at 1.7 nM. In assay [2], this compound showed a Kd of 7 nM. In assay [3], this compound yielded an IC50 of 12 nM. Besides, in assay [4], it took 9.4 nM to reach half-maximal inhibition (IC50) and the “fold-selectivity (Cbl-b over C-cbl)” value came out at 1.3x.

In assay [1], `CO[C@H]1C[C@](c2cc(NCCC#N)cc(N3Cc4c(cc(CNC5(C)CCC5)cc4C(F)(F)F)C3=O)c2)(c2nncn2C)C1` [Compound 216, 3-((3-((1r,3r)-3-methoxy-1-(4-methyl-4H-1,2,4-triazol-3-yl)cyclobutyl)-5-(6-(((1-methylcyclobutyl)amino)methyl)-1-oxo-4-(trifluoromethyl)isoindolin-2-yl)phenyl)amino)propanenitrile] gave a Fold of selectivity of 11×. Also, the results for the Kd in assay [1] and in assay [2] were 4.7 nM and 51 nM, respectively. Moreover, the IC50 is 61 nM in assay [3] and 14 nM in assay [4]. Also, the “fold-selectivity (Cbl-b over C-cbl)” value in assay [4] is on record as 4.2x.

As to `CO[C@H]1C[C@@](c2cc(NC3CCC3)cc(N3Cc4c(cc(CNC5(C)CCC5)cc4C(F)(F)F)C3=O)c2)(c2nncn2C)C1` [Compound 217, 2-(3-(cyclobutylamino)-5-((1s,3s)-3-methoxy-1-(4-methyl-4H-1,2,4-triazol-3-yl)cyclobutyl)phenyl)-6-(((1-methylcyclobutyl)amino)methyl)-4-(trifluoromethyl)isoindolin-1-one], the Fold of selectivity in assay [1] is 13×. Also, the figures for the Kd in assay [1] and in assay [2] were 7.5 nM and 91 nM, respectively. The IC50 in assay [3] came to 97 nM; in assay [4], 18 nM. The “fold-selectivity (Cbl-b over C-cbl)” value in assay [4] is 5.5x.

In assay [1], `CO[C@H]1C[C@@](c2cc(NC3CCCC3)cc(N3Cc4c(cc(CNC5(C)CCC5)cc4C(F)(F)F)C3=O)c2)(c2nncn2C)C1` [Compound 218, 2-(3-(cyclopentylamino)-5-((1s,3s)-3-methoxy-1-(4-methyl-4H-1,2,4-triazol-3-yl)cyclobutyl)phenyl)-6-(((1-methylcyclobutyl)amino)methyl)-4-(trifluoromethyl)isoindolin-1-one] yielded a Fold of selectivity of 10×. Moreover, the Kd in assay [1] turned out to be 77 nM; in assay [2], 770 nM. Besides, the IC50 in assay [3] worked out at 810 nM; in assay [4], 81 nM. Further, the “fold-selectivity (Cbl-b over C-cbl)” value in assay [4] is 10x.

In assay [1], `CC(C)O[C@H]1C[C@@](c2cccc(N3Cc4c(cc(CNC5(C)CCC5)cc4C(F)(F)F)C3=O)c2)(c2nncn2C)C1` [Compound 222, 2-(3-((1s,3s)-3-isopropoxy-1-(4-methyl-4H-1,2,4-triazol-3-yl)cyclobutyl)phenyl)-6-(((1-methylcyclobutyl)amino)methyl)-4-(trifluoromethyl)isoindolin-1-one] registered a Fold of selectivity of 13× and a Kd of 14 nM. This compound had a Kd in assay [2] of 200 nM. Moreover, in assay [3], the IC50 came to 270 nM. Also, in assay [4], the IC50 was 64 nM and the “fold-selectivity (Cbl-b over C-cbl)” value is 4.2x.

In assay [1], `CO[C@H]1C[C@@](c2cc(NC(C)C)cc(N3Cc4c(cc(CNC5(C)CCC5)cc4C(F)(F)F)C3=O)c2)(c2nncn2C)C1` [Compound 223, 2-(3-(isopropylamino)-5-((1s,3s)-3-methoxy-1-(4-methyl-4H-1,2,4-triazol-3-yl)cyclobutyl)phenyl)-6-(((1-methylcyclobutyl)amino)methyl)-4-(trifluoromethyl)isoindolin-1-one] showed a Fold of selectivity of 7.5× and a Kd of 2.9 nM. This compound also displayed a Kd in assay [2] of 22 nM. The IC50 in assay [3] was found to be 21 nM. Moreover, in assay [4], the IC50 was determined as 15 nM and the “fold-selectivity (Cbl-b over C-cbl)” value is 1.4x.

Compound `CO[C@H]1C[C@@](c2cc(NCCC#N)cc(N3Cc4c(cc(CNC5(C)CCC5)cc4C(F)(F)F)C3=O)c2)(c2nncn2C)C1` [Compound 224] displayed a Fold of selectivity in assay [1] of 10×. Further, the Kd was determined as 9.5 nM in assay [1] and 100 nM in assay [2]. The figures for the IC50 in assay [3] and in assay [4] were 100 nM and 20 nM, respectively. Also, the “fold-selectivity (Cbl-b over C-cbl)” value in assay [4] is reported as 5.0x.

The compound `CO[C@H]1C[C@](c2cc(C3CC3)cc(N3Cc4c(cc(CNC5(C)CCC5)cc4C(F)(F)F)C3=O)c2)(c2nncn2C)C1` [Compound 226, 2-(3-cyclopropyl-5-((1r,3r)-3-methoxy-1-(4-methyl-4H-1,2,4-triazol-3-yl)cyclobutyl)phenyl)-6-(((1-methylcyclobutyl)amino)methyl)-4-(trifluoromethyl)isoindolin-1-one] displayed a Fold of selectivity in assay [1] of 3.2×. For the same compound, the figures for the Kd in assay [1] and in assay [2] were 1.3 nM and 4.2 nM, respectively. Besides, the IC50 in assay [3] is 10 nM; in assay [4] it was 11 nM. In assay [4], the “fold-selectivity (Cbl-b over C-cbl)” value came out at 0.99x.

Values taken from patent US12187709B2 (Genentech, Inc., priority 2021, dated 2025).
